For assay [1], the system named is Mycobacterium tuberculosis. The assay is described as follows: Growth inhibition of Mycobacterium tuberculosis H37Rv at 6.25 ug/mL by microplate alamar blue assay. In kind it is functional. The settings on record: read-out: GI. Background: Resazurin is reduced to fluorescent resorufin, in cell work by metabolically active cells.
The test system of assay [2] is Mycobacterium tuberculosis. Description: Antituberculosis activity against Mycobacterium tuberculosis H37Rv by microplate alamar blue assay. The assay is classed as functional.
The subject of a further assay is Vero. Description: Cytotoxicity against Vero cells. In kind it is cell-based. As to conditions: Chlorocebus sabaeus.

In brackets after ≈: the same amount, converted by molar mass.

On to `CN1C(=O)CS/C1=N/N=C1\C(=O)Nc2ccc([N+](=O)[O-])cc21`, for which the inhibition of growth at 6.25 µg/mL in assay [1] was found to be 0%.
Regarding `O=C1Nc2ccc(F)cc2/C1=N/NC(=S)Nc1ccc(F)cc1`, in assay [1], the inhibition of growth at 6.25 µg/mL turned out to be 58%.
In the case of `O=C1/C(=N\NC(=S)Nc2ccccc2)c2cc(F)ccc2N1CN1CCCCC1`, the inhibition of growth at 6.25 µg/mL in assay [1] is 45%.
What is called MIC is the least concentration at which growth counts as inhibited. Low readings indicate inhibition by little substance, high ones a need for much substance. By IC50 is commonly meant the concentration at which inhibition is half-maximal. Read a high IC50 as a need for much substance. Take `CNC(=S)N/N=C1\C(=O)N(CN2CCOCC2)c2ccc([N+](=O)[O-])cc21`: in assay [1], the inhibition of growth at 6.25 µg/mL worked out at 96%. Besides, the MIC in assay [2] was > 6.25 µg/mL. The compound also displayed an IC50 in the assay with Vero of 7.61 µg/mL (≈ 20.1 µM).
In the case of `CC1S/C(=N/N=C2\C(=O)Nc3ccc([N+](=O)[O-])cc32)N(C2CCCCC2)C1=O` (configuration not stated), in assay [1], the inhibition of growth at 6.25 µg/mL was 28%.
Take `O=C1Nc2ccc([N+](=O)[O-])cc2/C1=N/N=C1/SCC(=O)N1C1CCCCC1`: in assay [1], the inhibition of growth at 6.25 µg/mL was 0%.
The same measure, in the same setting: with `O=C1/C(=N\NC(=S)Nc2ccc(F)cc2)c2cc(F)ccc2N1CN1CCOCC1` the figure was 48%.
For the compound `C=CCNC(=S)N/N=C1\C(=O)Nc2ccc([N+](=O)[O-])cc21`, the inhibition of growth at 6.25 µg/mL in assay [1] stood at 25%.
As for `O=C1/C(=N\NC(=S)Nc2ccccc2)c2cc([N+](=O)[O-])ccc2N1CN1CCCCC1`, the inhibition of growth at 6.25 µg/mL in assay [1] was determined as 31%.
As to `O=C1/C(=N\NC(=S)Nc2ccc(Cl)cc2)c2cc([N+](=O)[O-])ccc2N1CN1CCCCC1`, the inhibition of growth at 6.25 µg/mL in assay [1] turned out to be 54%.
On the same count and under the same terms, with `C=CCNC(=S)N/N=C1\C(=O)N(CN2CCCCC2)c2ccc(F)cc21` the figure was 20%; with `C=CCN1C(=O)CS/C1=N/N=C1\C(=O)Nc2ccc([N+](=O)[O-])cc21`, 2%; with `Cc1ccc(NC(=S)N/N=C2\C(=O)N(CN3CCCCC3)c3ccc(F)cc32)cc1`, 51%.
Turning to `O=C1/C(=N\NC(=S)Nc2ccccc2)c2cc([N+](=O)[O-])ccc2N1CN1CCOCC1`, in assay [1], the inhibition of growth at 6.25 µg/mL was found to be 93%. For the same compound, the MIC in assay [2] is > 6.25 µg/mL. The IC50 in the assay with Vero is 2.8 µg/mL (≈ 6.36 µM).
With `O=C1Nc2ccc([N+](=O)[O-])cc2/C1=N/NC(=S)NC1CCCCC1`, in assay [1], the inhibition of growth at 6.25 µg/mL stood at 90%. Also, the MIC in assay [2] was > 6.25 µg/mL. The compound further returned an IC50 in the assay with Vero of 4.74 µg/mL (≈ 13.6 µM).
As to `O=C1/C(=N\NC(=S)Nc2ccc(Cl)cc2)c2cc(F)ccc2N1CN1CCCCC1`, the inhibition of growth at 6.25 µg/mL in assay [1] worked out at 63%.
On the same count and under the same terms, with `O=C1Nc2ccc(F)cc2/C1=N/NC(=S)Nc1ccccc1` the figure was 61%; with `CC1S/C(=N/N=C2\C(=O)Nc3ccc([N+](=O)[O-])cc32)N(c2ccc([N+](=O)[O-])cc2)C1=O` (configuration not stated), 9%.
As to `O=C1/C(=N\NC(=S)NC2CCCCC2)c2cc([N+](=O)[O-])ccc2N1CN1CCCCC1`, the inhibition of growth at 6.25 µg/mL in assay [1] came to 87%.
As for `C=CCNC(=S)N/N=C1\C(=O)Nc2ccc(F)cc21`, in assay [1], the inhibition of growth at 6.25 µg/mL came to 30%.
Take `Cc1ccc(NC(=S)N/N=C2\C(=O)N(CN3CCOCC3)c3ccc([N+](=O)[O-])cc32)cc1`: in assay [1], the inhibition of growth at 6.25 µg/mL was 92%. Further, the MIC in assay [2] is > 6.25 µg/mL. For the same compound, the IC50 with Vero was determined as 17 µg/mL (≈ 37.4 µM).
As to `CCCCNC(=S)N/N=C1\C(=O)N(CN2CCOCC2)c2ccc([N+](=O)[O-])cc21`, the inhibition of growth at 6.25 µg/mL in assay [1] amounted to 30%.
With `CO[C@H]1/C=C/O[C@@]2(C)Oc3c(C)c(O)c4c(O)c(c(/C=N/N5CCN(C)CC5)c(O)c4c3C2=O)NC(=O)/C(C)=C\C=C\[C@H](C)[C@H](O)[C@@H](C)[C@@H](O)[C@@H](C)[C@H](OC(C)=O)[C@@H]1C` [RIFAMPIN], in assay [1], the inhibition of growth at 6.25 µg/mL is 97%. Also, in assay [2], the MIC was determined as 0.125 µg/mL (≈ 0.152 µM). Also, the IC50 in the assay on Vero was > 100 µg/mL.
Turning to `O=C1/C(=N\NC(=S)Nc2ccc(Cl)cc2)c2cc([N+](=O)[O-])ccc2N1CN1CCOCC1`, the inhibition of growth at 6.25 µg/mL in assay [1] amounted to 65%.
In the case of `CCCCNC(=S)N/N=C1\C(=O)N(CN2CCOCC2)c2ccc(F)cc21`, the inhibition of growth at 6.25 µg/mL in assay [1] is 34%.
As for `CCNC(=S)N/N=C1\C(=O)Nc2ccc([N+](=O)[O-])cc21`, the inhibition of growth at 6.25 µg/mL in assay [1] was determined as 0%.
Still for that read-out and setting: the figure for `CCNC(=S)N/N=C1\C(=O)N(CN2CCOCC2)c2ccc(F)cc21` is 1%; for `O=C1Nc2ccc([N+](=O)[O-])cc2/C1=N/N=C1/SCC(=O)N1c1ccc(Cl)cc1` it is 0%.
Take `CC1S/C(=N/N=C2\C(=O)Nc3ccc([N+](=O)[O-])cc32)N(c2ccc(Br)cc2)C1=O` (configuration not stated): the inhibition of growth at 6.25 µg/mL in assay [1] came out at 3%.
Still for that read-out and setting: the figure for `CCCCNC(=S)N/N=C1\C(=O)Nc2ccc(F)cc21` is 16%.
Consider `CNC(=S)N/N=C1\C(=O)N(CN2CCCCC2)c2ccc(F)cc21`, for which the inhibition of growth at 6.25 µg/mL in assay [1] came to 20%.
Consider `O=C1Nc2ccc([N+](=O)[O-])cc2/C1=N/NC(=S)Nc1ccc(F)cc1`, for which, in assay [1], the inhibition of growth at 6.25 µg/mL was found to be 24%.
Same read-out and setting: with `O=C1/C(=N\NC(=S)Nc2ccccc2)c2cc(F)ccc2N1CN1CCOCC1` the figure was 56%; with `O=C1Nc2ccc([N+](=O)[O-])cc2/C1=N/N=C1/SCC(=O)N1c1ccccc1`, 0%.
The same measure, in the same setting: the figure for `O=C1Nc2ccc([N+](=O)[O-])cc2/C1=N/NC(=S)Nc1ccc(Cl)cc1` is 75%.
Take `CCCCN1C(=O)CS/C1=N/N=C1\C(=O)Nc2ccc([N+](=O)[O-])cc21`: the inhibition of growth at 6.25 µg/mL in assay [1] turned out to be 0%.
As to `CC1S/C(=N/N=C2\C(=O)Nc3ccc([N+](=O)[O-])cc32)N(c2ccc(F)cc2)C1=O` (configuration not stated), the inhibition of growth at 6.25 µg/mL in assay [1] was 5%.
For the compound `CCNC(=S)N/N=C1\C(=O)N(CN2CCCCC2)c2ccc(F)cc21`, in assay [1], the inhibition of growth at 6.25 µg/mL was found to be 2%.
For the compound `O=C1Nc2ccc(F)cc2/C1=N/NC(=S)Nc1ccc(Cl)cc1`, in assay [1], the inhibition of growth at 6.25 µg/mL was 37%.
Consider `O=C1Nc2ccc(F)cc2/C1=N/NC(=S)NC1CCCCC1`, for which, in assay [1], the inhibition of growth at 6.25 µg/mL came out at 39%.
Same read-out and setting: the figure for `O=C1Nc2ccc([N+](=O)[O-])cc2/C1=N/N=C1/SCC(=O)N1c1ccc(Br)cc1` is 0%; for `O=C1/C(=N\NC(=S)Nc2ccc(Cl)cc2)c2cc(F)ccc2N1CN1CCOCC1` it is 58%.
On the same count and under the same terms, the figure for `C=CCN1C(=O)C(C)S/C1=N/N=C1\C(=O)Nc2ccc([N+](=O)[O-])cc21` (configuration not stated) is 3%; for `O=C1/C(=N\NC(=S)NC2CCCCC2)c2cc(F)ccc2N1CN1CCOCC1` it is 33%.
`O=C1Nc2ccc([N+](=O)[O-])cc2/C1=N/N=C1/SCC(=O)N1c1ccc(F)cc1`: the inhibition of growth at 6.25 µg/mL in assay [1] was 0%.
In the case of `O=C1Nc2ccc([N+](=O)[O-])cc2/C1=N/NC(=S)Nc1ccc([N+](=O)[O-])cc1`, the inhibition of growth at 6.25 µg/mL in assay [1] stood at 2%.
Turning to `Cc1ccc(N2C(=O)CS/C2=N/N=C2\C(=O)Nc3ccc([N+](=O)[O-])cc32)cc1`, the inhibition of growth at 6.25 µg/mL in assay [1] was found to be 17%.
On to `O=C1Nc2ccc([N+](=O)[O-])cc2/C1=N/NC(=S)Nc1ccc(Br)cc1`, for which the inhibition of growth at 6.25 µg/mL in assay [1] worked out at 90%. Further, in assay [2], the MIC was > 6.25 µg/mL. In the assay with Vero, this compound registered an IC50 of 2.59 µg/mL (≈ 6.16 µM).
As for `Cc1ccc(NC(=S)N/N=C2\C(=O)Nc3ccc(F)cc32)cc1`, the inhibition of growth at 6.25 µg/mL in assay [1] turned out to be 36%.
On to `CCCCNC(=S)N/N=C1\C(=O)Nc2ccc([N+](=O)[O-])cc21`, for which, in assay [1], the inhibition of growth at 6.25 µg/mL came out at 42%.
For the compound `O=C1/C(=N\NC(=S)NC2CCCCC2)c2cc([N+](=O)[O-])ccc2N1CN1CCOCC1`, in assay [1], the inhibition of growth at 6.25 µg/mL was determined as 90%. The same compound gave an MIC in assay [2] of 6.25 µg/mL (≈ 14 µM).
For the compound `O=C1/C(=N\NC(=S)Nc2ccc(F)cc2)c2cc(F)ccc2N1CN1CCCCC1`, the inhibition of growth at 6.25 µg/mL in assay [1] is 38%.
`C=CCNC(=S)N/N=C1\C(=O)N(CN2CCCCC2)c2ccc([N+](=O)[O-])cc21`: the inhibition of growth at 6.25 µg/mL in assay [1] amounted to 22%.
As for `Cc1ccc(NC(=S)N/N=C2\C(=O)Nc3ccc([N+](=O)[O-])cc32)cc1`, in assay [1], the inhibition of growth at 6.25 µg/mL turned out to be 93%. This compound also returned an MIC in assay [2] of 6.25 µg/mL (≈ 17.6 µM). For the same compound, in the assay with Vero, the IC50 stood at 2.45 µg/mL (≈ 6.89 µM).
In the case of `CCCCN1C(=O)C(C)S/C1=N/N=C1\C(=O)Nc2ccc([N+](=O)[O-])cc21` (configuration not stated), the inhibition of growth at 6.25 µg/mL in assay [1] was determined as 10%.
On the same count and under the same terms, with `CCNC(=S)N/N=C1\C(=O)Nc2ccc(F)cc21` the figure was 8%; with `O=C1Nc2ccc([N+](=O)[O-])cc2/C1=N/NC(=S)Nc1ccccc1`, 33%.
For the compound `CC1S/C(=N/N=C2\C(=O)Nc3ccc([N+](=O)[O-])cc32)N(c2ccc(Cl)cc2)C1=O` (configuration not stated), the inhibition of growth at 6.25 µg/mL in assay [1] stood at 0%.
Turning to `O=C1Nc2ccc(F)cc2/C1=N/NC(=S)Nc1ccc([N+](=O)[O-])cc1`, the inhibition of growth at 6.25 µg/mL in assay [1] is 31%.
Consider `Cc1ccc(N2C(=O)C(C)S/C2=N/N=C2\C(=O)Nc3ccc([N+](=O)[O-])cc32)cc1` (configuration not stated), for which the inhibition of growth at 6.25 µg/mL in assay [1] was determined as 0%.
Regarding `O=C1/C(=N\NC(=S)NCc2ccccc2)c2cc(F)ccc2N1CN1CCCCC1`, in assay [1], the inhibition of growth at 6.25 µg/mL stood at 3%.
The same measure, in the same setting: the figure for `CNC(=S)N/N=C1\C(=O)N(CN2CCOCC2)c2ccc(F)cc21` is 12%.
Same read-out and setting: the figure for `Cc1ccc(NC(=S)N/N=C2\C(=O)N(CN3CCCCC3)c3ccc([N+](=O)[O-])cc32)cc1` is 88%; for `C=CCNC(=S)N/N=C1\C(=O)N(CN2CCOCC2)c2ccc(F)cc21` it is 24%; for `O=C1/C(=N\NC(=S)NCc2ccccc2)c2cc(F)ccc2N1CN1CCOCC1` it is 0%.
Take `CC1S/C(=N/N=C2\C(=O)Nc3ccc([N+](=O)[O-])cc32)N(c2ccccc2)C1=O` (configuration not stated): in assay [1], the inhibition of growth at 6.25 µg/mL came out at 9%.
For the compound `CCN1C(=O)CS/C1=N/N=C1\C(=O)Nc2ccc([N+](=O)[O-])cc21`, in assay [1], the inhibition of growth at 6.25 µg/mL came to 0%.

The record behind these values is ChEMBL document CHEMBL1143733, “Synthesis and structure-antituberculosis activity relationship of 1H-indole-2,3-dione derivatives” (Bioorg Med Chem, 2007).
